From US12180226B2, “Spirotricycle RIPK1 inhibitors and methods of uses thereof” (Merck Sharp & Dohme LLC, priority 2021, dated 2024)
Structures can show the parent of a compound that is named as a salt.

Target: RIPK1 (recombinant GST-RIPK1 kinase domain, residues 1-327) (Homo sapiens (Human), UniProt Q13546)
Assay: RIPK1-ADP-Glo Enzymatic Assay
Format: biochemical
Settings: ADP-Glo; 25 nM GST-RIPK1, 300 μM ATP; assay lower limit ~25 nM; read-out: RIPK1 V0 Ec50
Procedure, shortened: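 Compounds titrated 10-pt 1:3 from 100000 nM top (1% DMSO); 30 min preinc w/ 25 nM Sf21-expressed enzyme, RT; start w/ ATP (300 μM final) + dephos-MBP (3 μM); 150 min; ADP-Glo lumi; 4-param fit → EC50.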

RIPK1 (recombinant GST-RIPK1 kinase domain, residues 1-327), sequence (Q13546 1-327): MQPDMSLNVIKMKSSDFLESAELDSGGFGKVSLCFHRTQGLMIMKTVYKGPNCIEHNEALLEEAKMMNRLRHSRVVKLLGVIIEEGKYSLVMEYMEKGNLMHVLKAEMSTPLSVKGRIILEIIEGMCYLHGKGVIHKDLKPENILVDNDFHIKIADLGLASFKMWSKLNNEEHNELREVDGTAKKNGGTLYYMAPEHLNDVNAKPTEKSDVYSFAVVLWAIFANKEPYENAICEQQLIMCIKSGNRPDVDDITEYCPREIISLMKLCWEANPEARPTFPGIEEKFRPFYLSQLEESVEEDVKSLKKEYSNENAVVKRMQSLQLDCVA

Row | Compound | EC50 [nM]
1 | O=C(c1cnc(C(F)(F)F)cn1)N1CCC2(CC1)O[C@@H]1CC[C@@H](c3cc(F)cc(F)c3)N1C2=O [Example 6.1, (5′S,7a′R)-5′-(3,5-Difluorophenyl)-1-(5-(trifluoromethyl)pyrazine-2-carbonyl)tetrahydro-3′H-spiro[piperidine-4,2′-pyrrolo[2,1-b]oxazol]-3′-one] | 388
2 | Cc1oncc1C(=O)N1CCC2(CC1)O[C@@H]1CC[C@@H](c3cc(F)cc(F)c3)N1C2=O [Example 6.60, (5′S,7a′R)-5′-(3,5-difluorophenyl)-1-(5-methyl-1,2-oxazole-4-carbonyl)tetrahydro-3′H-spiro[piperidine-4,2′-pyrrolo[2,1-b] [1,3]oxazol]-3′-one] | 95
3 | C[C@@]12CC[C@@H](c3ccccc3)N1C(=O)C1(CCN(C(=O)c3ccccc3)CC1)O2 [Example 6.98, (5′S,7a′R)-1-(benzene-carbonyl)-7a′-methyl-5′-phenyltetrahydro-3′H-spiro[piperidine-4,2′-pyrrolo[2,1-b] [1,3]oxazol]-3′-one] | 523
4 | COc1ccc(F)c(C(=O)N2CCC3(CC2)O[C@@H]2CC[C@@H](c4ccccc4)N2C3=O)c1 [Example 6.149, (5′S,7a′R)-1-(2-fluoro-5-methoxybenzene-1-carbonyl)-5′-phenyl-tetrahydro-3′H-spiro [piperidine-4,2′-pyrrolo[2,1-b][1,3]oxazol]-3′-one] | < 25
5 | Cc1ccccc1[C@@H]1CC[C@H]2OC3(CCN(C(=O)c4ccccc4)CC3)C(=O)N21 [Example 6.135, (5′S,7a′R)-1-(benzene-carbonyl)-5′-(2-meth-ylphenyl)tetrahydro-3′H-spiro[piperidine-4,2′-pyrrolo[2,1-b] [1,3]oxazol]-3′-one] | 457
6 | Cc1nc(N2CCC3(CC2)O[C@@H]2CC[C@@H](c4cc(F)cc(F)c4)N2C3=O)ccc1C#N [Example 4.42, 6-[(5′S,7a′R)-5′-(3,5-difluorophenyl)-3′-oxotetrahydro-1H,3′H-spiro[piperidine-4,2′-pyrrolo[2,1-b] [1,3]oxazol]-1-yl]-2-methylpyridine-3-carbonitrile] | < 25
7 | CC1CN(c2ncnc3ccnn23)CCC12O[C@@H]1CC[C@@H](c3cc(F)cc(F)c3)N1C2=O (stereo partly drawn) [Example 4.267, (5′S,7a′R)-5′-(3,5-difluorophenyl)-3-methyl-1-(pyrazolo[1,5-a] [1,3,5]triazin-4-yl)tetrahydro-3′H-spiro[piperidine-4,2′-pyrrolo[2,1-b] [1,3]oxazol]-3′-one] | < 25
8 | O=C(C1CCCC1)N1CCC2(CC1)O[C@@H]1CC[C@@H](c3cc(F)cc(F)c3)N1C2=O [Example 5.32, (5′S,7a′R)-1-(cyclopentane-carbonyl)-5′-(3,5-difluoro-phenyl)tetrahydro-3′H-spiro[piperidine-4,2′-pyrrolo[2,1-b]oxazol]-3′-one] | 409
9 | O=C(c1ccccc1)N1CCC2(O[C@@H]3CC[C@@H](c4ccccc4)N3C2=O)C(F)C1 (single isomer, unassigned) [Example 2.3, (3[S or R],4[R or S], 5′S,7a′R)-1-benzoyl-3-fluoro-5′-phenyltetrahydro-3′H-spiro[piperidine-4,2′-pyrrolo[2,1-b]oxazol]-3′-one] | < 25
10 | O=C1N2[C@H](OC13CCN(c1ccnc4ccnn14)CC3)[C@@H](O)C[C@H]2c1ccccc1 [Example 4.251, (5′S,7′S,7a′R)-7′-hydroxy-5′-phenyl-1-(pyrazolo [1,5-a]pyrimidin-7-yl)tetrahydro-3′H-spiro[piperidine-4,2′-pyrrolo[2,1-b] [1,3]oxazol]-3′-one] | < 25
11 | O=C(c1cnc2cccnn12)N1CCC2(CC1)O[C@@H]1CC[C@@H](c3cc(F)cc(F)c3)N1C2=O [Example 6.16, (5′S,7a′R)-5′-(3,5-difluorophenyl)-1-(imidazo[1,2-b]-pyridazine-3-carbon-yl)tetrahydro-3′H-spiro[piperidine-4,2′-pyrrolo[2,1-b][1,3]oxazol]-3′-one] | 276
12 | N#Cc1ccc(N2CC3(C2)O[C@@H]2CC[C@@H](c4ccccc4)N2C3=O)n2ncnc12 [Example 13.23, 5-((5′S,′7a′R)-3′-oxo-5′-phenyltetrahydro-3′H-spiro[azetidine-3,2′-pyrrolo[2,1-b]oxazol]-1-yl)-[1,2,4]triazolo[1,5-a]pyridine-8-carbonitrile, TFA salt] | 54.3
13 | N#Cc1ccc(N2CCC3(CC2)O[C@@H]2CC[C@@H](c4ccccc4)N2C3=O)n2ncc(C(F)F)c12 [Example 4.179, 3-(difluoromethyl)-7-[(5′S,7a′R)-3′-oxo-5′-phenyltetrahydro-1H,3′H-spiro[piperidine-4,2′-pyrrolo[2,1-b] [1,3]oxazol]-1-yl]pyrazolo[1,5-a] pyridine-4-carbonitrile] | < 25
14 | N#Cc1cnc(N2CCC3(CC2)O[C@@H]2CC[C@@H](c4ccccc4F)N2C3=O)nc1 [Example 4.106, 2-((5′S,7a′R)-5′-(2-fluorophenyl)-3′-oxotetrahydro-3′H-spiro[piperidine-4,2′-pyrrolo[2,1-b]oxazol]-1-yl)pyrimidine-5-carbonitrile] | 30.5
15 | COc1cc(N2CCC3(CC2)O[C@@H]2CC[C@@H](c4cc(F)cc(F)c4)N2C3=O)nc(C)c1C#N [Example 4.69, 6-[(5′S,7a′R)-5′-(3,5-difluorophenyl)-3′-oxotetrahydro-1H,3′H-spiro[piperidine-4,2′-pyrrolo[2,1-b] [1,3]oxazol]-1-yl]-4-methoxy-2-methylpyridine-3-carbonitrile] | 114
16 | C#Cc1cc(C(=O)N2CCC3(CC2)O[C@@H]2CC[C@@H](c4cc(F)cc(F)c4)N2C3=O)ccn1 [Example 5.42, (5′S,7a′R)-5′-(3,5-difluoro-phenyl)-1-(2-ethynylpyri-dine-4-carbonyl)tetra-hydro-3′H-spiro[piperi-dine-4,2′-pyrrolo-[2,1-b] [1,3]oxazol]-3′-one] | 39.2
17 | CCOC(=O)c1nc(N2CCC3(CC2)O[C@@H]2CC[C@@H](c4cc(F)cc(F)c4)N2C3=O)ncc1F [Example 4.205, ethyl 2-[(5′S,7a′R)-5′-(3,5-difluorophenyl)-3′-oxotetrahydro-1H,3′H-spiro[piperidine-4,2′-pyrrolo[2,1-b] [1,3]oxazol]-1-yl]-5-fluoropyrimidine-4-carboxylate] | 63.3
18 | Cc1ccc(C(=O)N2CCC3(CC2)O[C@@H]2CC[C@@H](c4cc(F)cc(F)c4)N2C3=O)s1 [Example 5.34, (5′S,7a′R)-5′-(3,5-difluoro-phenyl)-1-(5-methylthio-phene-2-carbonyl)tetra-hydro-3′H-spiro[piperidine-4,2′-pyrrolo[2,1-b]oxazol]-3′-one] | < 25
19 | O=C(c1nc(N2CCC3(CC2)O[C@@H]2CC[C@@H](c4cc(F)cc(F)c4)N2C3=O)ncc1F)N1CC(F)C1 [Example 7.7, (5′S,7a′R)-5′-(3,5-difluorophenyl)-1-[5-fluoro-4-(3-fluoroazetidine-1-carbonyl)pyrimidin-2-yl]tetrahydro-3′H-spiro[piperidine-4,2′-pyrrolo[2,1-b][1,3]oxazol]-3′-one] | < 25
20 | Cc1c(Br)ccnc1C(=O)N1CCC2(CC1)O[C@@H]1CC[C@@H](c3cc(F)cc(F)c3)N1C2=O [Example 6.80, (5′S,7a′R)-1-(4-bromo-3-methylpyridine-2-carbonyl)-5′-(3,5-difluorophenyl)tetra-hydro-3′H-spiro [piperidine-4,2′-pyrrolo[2,1-b][1,3]-oxazol]-3′-one] | 153
